From patent US4003945A, “Novel cyclopropanecarboxylates” (Sumitomo Chemical Company, Limited, priority 1973, dated 1977)
In brackets after ≈: the same amount, converted by molar mass. Where two headings read alike, the source gives them in different places.

Tests used:
housefly adults = assay: Oil spray, Campbel's turn table, lethal concentration (Test Example 2); type: in vivo; conditions: Musca domestica, 24 h
Experimental: A group of about 100 housefly adults was exposed to descending spray for 10 minutes, thereafter was transferred to an observation cage, was fed, and was allowed to stand at room temperature.
After a day, the dead and alive were counted to calculate the lethal ratio.

[1] = system: 3rd or 4th instar larvae of tobacco cut worm; assay: Diluted emulsion sprayed by settling tower on larvae (Example X); type: in vivo; conditions: emulsion diluted to 50 times, 1 ml
Experimental: Ten of the 3rd or 4th instar larvae of tobacco cut worm were put into a petri dish of 17 cm in diameter.
One ml of the present compound (4, 11, 28, 92, 94, 95, 109, 111) in form of an emulsion obtained in Example X, which were diluted to 50 times with water, were sprayed by means of a settling tower. The said larvae were removed into another petri dish with the leaves of the chinese cabbage leaves. Observation was made after 48 hrs. As a result, more than 90% of the larvae were dead in each case.

adult planthoppers = assay: Residual effect on sprayed rice seedlings (Example XV); type: in vivo; conditions: concentrate diluted to 400 times; observed 24 hours after release
Experimental: About 20 rice seedlings, cultivated for 20 days after sowing in a flower pot of 8.5 cm in diameter, were sprayed with each of the emulsifiable concentrates obtained as in Example X which were diluted to 400 times with water. After air-drying, each pot was covered with a wire cage, into which 20 adult planthoppers were released as time elapsed. And the observation was made after 24 hours.

[2] = system: leafhoppers of resistant and susceptible strains; assay: Emulsion sprayed on rice seedlings, leafhoppers released (Example XVI); type: in vivo, leafhopper; conditions: emulsion diluted to 50 times
Experimental: About 20 rice seedlings, cultivated for 20 days after sowing in a flower pot of 8.5 cm in diameter were sprayed with each of the present compounds (31, 32, 35, 39, 40, 42, 45, 48, 55, 59, 60, 63, 131 - 134, 139) in the form of an emulsion which were diluted to 50 times. Each pot was put into the beaker and covered with gauze, into which leafhoppers of resistant and susceptible strains, respectively, were released in each beaker. And the number of knocked down insects after 1 hour and the mortality after 24 hours were counted. As a result, the knock down per centage was more than 50% and the mortality was more than 80% in each case.

adults of houseflies = assay: Oil preparation sprayed on Campbell's turn table (Example XX); type: in vivo, housefly; conditions: Musca domestica, 24 h; Table 6; 1% oil preparation 5 ml, 10 minutes exposure, next day
Experimental: The oil preparation obtained as in Example B (5 ml) was sprayed by the use of a Campbell's turn table [Soap & Sanitary Chemicals, Vol. 14, No. 6, 119 (1938) ] on 100 adults of houseflies were exposed to the spray for 10 minutes. The houseflies were then allowed to stand with feeding. On the next day, dead and alive were observed.

[3] = Table 3a, oil spray 5 ml, 10 minutes exposure, counted after a day, read-out: LC50

Structure (SMILES): C=CCC1=C(C)C(OC(=O)C2C(C=C(C)C)C2(C)C)CC1=O (stereo not shown) [Allethrin, reference compound]
- LC50 (housefly adults): 3500 µg/mL (≈ 11600 µM)

Structure (SMILES): C#CC(OC(=O)C1C(C=C(C)C)C1(C)C)C(=CCCC)CC (stereo not shown) [Compound 5, 1-Ethynyl-2-ethyl-2-hexenyl chrysanthemate]
- LC50 (housefly adults): 2400 µg/mL (≈ 7930 µM)

Structure (SMILES): C#CC(OC(=O)C1C(C)(C)C1(C)C)C(C)=CC (stereo not shown) [Compound 11, 1-Ethynyl-2-methyl-2-butenyl 2',2',3',3'-tetramethylcyclo-propanecarboxylate]
- larvae dead after 48 hrs [1]: more than 90%

Structure (SMILES): C#CC(OC(=O)C1C(C=C2CCCC2)C1(C)C)C(C)=CCC (stereo not shown) [Compound 28, 1-Ethynyl-2-methyl-2-pentenyl 2',2'-dimethyl-3'-cyclopentylidene-methylcyclopropanecarboxylate]
- larvae dead after 48 hrs [1]: more than 90%

Structure (SMILES): C#CC(OC(=O)C1C(C=C(C)C)C1(C)C)C(C)=CCC=C (stereo not shown) [Compound 29, 1-Ethynyl-2-methyl-2,5-hexadienyl chrysanthemate]
- LC50 (housefly adults): 900 µg/mL (≈ 3140 µM)

Structure (SMILES): C#CC(OC(=O)C1C(C)(C)C1(C)C)C(C)=Cc1ccccc1 (stereo not drawn) [Compound 39, α-Ethynyl-β-methylcinnamyl 2,2,3,3-tetramethyl-cyclopropanecarboxylate]
- Mortality (%) After 1 day (adult planthoppers): 100%
- Mortality (%) After 6 days (adult planthoppers): 85.0%
- knock down percentage after 1 hour [2]: more than 50%
- mortality after 24 hours [2]: more than 80%

Structure (SMILES): C#CC(OC(=O)C1C(C=C2CCCC2)C1(C)C)C(C)=Cc1ccccc1 (stereo not shown) [Compound 40]
- Mortality (%) After 1 day (adult planthoppers): 100%
- Mortality (%) After 6 days (adult planthoppers): 66.7%
- knock down percentage after 1 hour [2]: more than 50%
- mortality after 24 hours [2]: more than 80%

Structure (SMILES): C#CC(OC(=O)C1C(C)C1(C)C)C(=Cc1ccc(OCC)cc1)CC (stereo not drawn) [Compound 42, α-Ethynyl-β-ethyl-4-ethoxy-cinnamyl 2',2',3'-trimethyl-cyclopropanecarboxylate]
- knock down percentage after 1 hour [2]: more than 50%
- mortality after 24 hours [2]: more than 80%

Structure (SMILES): C#CC(OC(=O)C1C(C=C(C)C=C)C1(C)C)C(C)=Cc1ccc(C#N)cc1 (stereo not drawn) [Compound 45, α-Ethynyl-β-methyl-4-cyano-cinnamyl 2',2'-dimethyl-3'-(2"-methyl-1",3"-butadienyl)-cyclopropanecarboxylate]
- knock down percentage after 1 hour [2]: more than 50%
- mortality after 24 hours [2]: more than 80%

Structure (SMILES): C#CC(OC(=O)C1C(C)(C)C1(C)C)C(=Cc1ccccc1)C(C)C (stereo not drawn) [Compound 48, α-Ethynyl-β-isopropylcinnamyl 2,2,3,3-tetramethylcyclopropane-carboxylate]
- knock down percentage after 1 hour [2]: more than 50%
- mortality after 24 hours [2]: more than 80%

Structure (SMILES): C#CC(OC(=O)C1(C)C(C=C2CCCC2)C1(C)C)C(C)=Cc1ccccc1C (stereo not drawn) [Compound 55, α-Ethynyl-β-methyl-2-methyl-cinnamyl 1',2',2'-trimethyl-3'-cyclopentylidenemethyl-cyclopropanecarboxylate]
- knock down percentage after 1 hour [2]: more than 50%
- mortality after 24 hours [2]: more than 80%

Structure (SMILES): C#CC(OC(=O)C1C(C=C(Cl)Cl)C1(C)C)C(C)=Cc1ccccc1 (stereo not drawn) [Compound 59, α-Ethynyl-β-methylcinnamyl 2,2-dimethyl-3-(2',2'-dichloro-vinyl)cyclopropanecarboxylate]
- knock down percentage after 1 hour [2]: more than 50%
- mortality after 24 hours [2]: more than 80%

Structure (SMILES): C#CC(C=Cc1ccco1)OC(=O)C1C(C=C(C)C)C1(C)C (stereo not drawn) [Compound 60, α-Ethynyl-γ-(2-furyl)-allyl chrysanthemate]
- knock down percentage after 1 hour [2]: more than 50%
- mortality after 24 hours [2]: more than 80%

Structure (SMILES): C#CC(C#CCOC)OC(=O)C1C(C=C(C)C)C1(C)C (stereo not shown) [Compound 68, 1-Ethynyl-4-methoxy-2-butyn-1-yl chrysanthemate]
- LC50 (housefly adults; [3]): 4000 µg/mL (≈ 14600 µM)

Structure (SMILES): C#CC(C#CCC=C)OC(=O)C1C(C=C(C)C)C1(C)C (stereo not shown) [Compound 71, 1-Ethynylhexa-2-yn-5-en-1-yl chrysanthemate]
- LC50 (housefly adults; [3]): 2900 µg/mL (≈ 10700 µM)

Structure (SMILES): C#CC(C#CCOc1ccccc1)OC(=O)C1C(C=C(C)C)C1(C)C (stereo not shown) [Compound 79, 1-Ethynyl-4-phenoxy-2-butyn-1-yl chrysanthemate]
- LC50 (housefly adults; [3]): 830 µg/mL (≈ 2470 µM)

Structure (SMILES): C#CC(C#CCC=C)OC(=O)C1C(C=CC=C)C1(C)C (stereo not shown) [Compound 92, 1-Ethynylhexa-2-yn-5-en-1-yl 2',2'-dimethyl-3'-(1",3"- butadienyl)cyclopropane-carboxylate]
- larvae dead after 48 hrs [1]: more than 90%

Structure (SMILES): C#CC(C#CCC=C)OC(=O)C1C(C=C2CCCC2)C1(C)C (stereo not shown) [Compound 94, 1-Ethynylhexa-2-yn-5-en-1-yl 2',2'-dimethyl-3-'-cyclopentylidene-methylcyclopropanecarboxylate]
- larvae dead after 48 hrs [1]: more than 90%

Structure (SMILES): C#CC(C#CCC=C)OC(=O)C1C(C=C(Cl)Cl)C1(C)C (stereo not shown) [Compound 95, 1-Ethynylhexa-2-yn-5-en-1-yl 2',2'-dimethyl-3'-(2",2"- dichlorovinyl)cyclopropane-carboxylate]
- larvae dead after 48 hrs [1]: more than 90%

Structure (SMILES): C#CC(C=CC1C=CCC1)OC(=O)C1C(C=C(C)C)C1(C)C (stereo not shown) [Compound 102, 1-Ethynyl-3-(2'-cyclopentenyl)-allyl chrysanthemate]
- LC50 (housefly adults; [3]): 600 µg/mL (≈ 2010 µM)

Structure (SMILES): C#CC(OC(=O)C1C(C=C(C)C)C1(C)C)C(=CC1=CCCC1)CC (stereo not shown) [Compound 109, 1-Ethynyl-2-ethyl-3-(1'-cyclopentenyl)allyl chrysanthemate]
- LC50 (housefly adults; [3]): 340 µg/mL (≈ 1040 µM)
- larvae dead after 48 hrs [1]: more than 90%

Structure (SMILES): C#CC(OC(=O)C1C(C=C2CCCC2)C1(C)C)C(C)=CCC1=CCCC1 (stereo not shown) [Compound 111, 1-Ethynyl-2-methyl-4-(1'-cyclopentenyl)-2-butenyl 2",2"- dimethyl-3"-cyclopentylidene-methylcyclopropanecarboxylate]
- LC50 (housefly adults; [3]): 410 µg/mL (≈ 1160 µM)
- larvae dead after 48 hrs [1]: more than 90%

Structure (SMILES): C#CC(OC(=O)C1C(C=C(Cl)Cl)C1(C)C)/C(C)=C/CC (stereo not shown) [Compound 126, 1-Ethynyl-2-methyl-2-pentenyl 2',2'-dimethyl-3'-(2",2"-dichlorovinyl)-yclopropanecarboxylate]
- LC50 (housefly adults): 300 µg/mL (≈ 952 µM)

Structure (SMILES): C#CC(OC(=O)C1C(C=C(Cl)Cl)C1(C)C)C(C)=CCC=C (stereo not shown) [Compound 127, 1-Ethynyl-2-methyl-2,5-hexadien-1-yl 2',2'-dimethyl-3'-(2",2"-di-chlorovinyl)-cyclopropane-carboxylate]
- LC50 (housefly adults): 250 µg/mL (≈ 764 µM)

Structure (SMILES): C#CC(OC(=O)C1C(C=C(C)C)C1(C)C)C(C)=CCCC=C (stereo not shown) [Compound 128, 1-Ethynyl-2-methyl-2,6-heptadien-1-yl-chrysanthemate]
- LC50 (housefly adults): 900 µg/mL (≈ 3000 µM)

Structure (SMILES): C#CC(OC(=O)C1C(C=C(Cl)Cl)C1(C)C)C(C)=CCCC=C (stereo not shown) [Compound 129, 1-Ethynyl-2-methyl-2,6-heptadien-1-yl 2',2'-dimethyl-3'-(2",2"-dichlorovinyl)-cyclopropane-carboxylate]
- LC50 (housefly adults): 230 µg/mL (≈ 674 µM)

Structure (SMILES): C#CC(OC(=O)C1C(C=C(Cl)Cl)C1(C)C)C(C)=CC (stereo not shown) [Compound 130, 1-Ethynyl-2-methyl-2-butenyl 2',2'-dimethyl-3'-2',2"-dichlorovinyl-cyclopropanecarboxylate]
- LC50 (housefly adults): 1500 µg/mL (≈ 4980 µM)

Structure (SMILES): C#CC(OC(=O)C1C(C=C(Cl)Cl)C1(C)C)C(C)=Cc1c(C)cc(OC)cc1C (stereo not drawn) [Compound 136, α-Ethynyl-β-methyl-2,6- -dimethyl-4-methoxy cinnamyl 2',2'-dimethyl-3'2"-2"- dichlorovinyl)-cyclopropane-carboxylate]
- mortality at 1 % (adults of houseflies): 90%

Structure (SMILES): C#CC(OC(=O)C1C(C=C(Cl)Cl)C1(C)C)C(C)=Cc1ccc(C#N)cc1 (stereo not shown) [Compound 137]
- mortality at 1 % (adults of houseflies): 100%

Structure (SMILES): C#CC(C=C(c1ccccc1)c1ccccc1)OC(=O)C1C(C=C(Cl)Cl)C1(C)C (stereo not shown) [Compound 138]
- mortality at 1 % (adults of houseflies): 100%

Structure (SMILES): C#CC(C#CCOC)OC(=O)C1C(C=C(Cl)Cl)C1(C)C (stereo not shown) [Compound 142, 1-Ethynyl-4-methoxy-2-butyn-1-yl 2',2'-dimethyl-3'-(2",2"- dichlorovinyl)-cyclopropane-carboxylate]
- LC50 (housefly adults; [3]): 1200 µg/mL (≈ 3810 µM)

Structure (SMILES): C#CC(C#CCC=C)OC(=O)C1C(C=C(Cl)Cl)C1(C)C (stereo not shown) [Compound 143, 1-Ethynyl-4-vinyl-2-butyn-1-yl 2',2'-dimethyl-340-(2",2"-dichloro-vinyl)-cyclopropanecarboxylate]
- LC50 (housefly adults; [3]): 820 µg/mL (≈ 2630 µM)

Structure (SMILES): C#CC(C#CCOc1ccccc1)OC(=O)C1C(C=C(Cl)Cl)C1(C)C (stereo not shown) [Compound 144, 1-Ethynyl-4-phenoxy-2-butyn-1-yl 2',2'-dimethyl-3'-(2",2"-dichlorovinyl)-cyclopropanecarboxylate]
- LC50 (housefly adults; [3]): 290 µg/mL (≈ 769 µM)

Structure (SMILES): CNC(=O)Oc1ccc(C)c(C)c1 [Meobal, 3,4-Dimethylphenyl-N-methylcarbamate, reference compound]
- Mortality (%) After 1 day (adult planthoppers): 100%
- Mortality (%) After 6 days (adult planthoppers): 40.0%
